Measured values from ChEMBL document CHEMBL1146167, “Structural correlation between lipophilicity and lipopolysaccharide-sequestering activity in spermine-sulfonamide analogs” (Bioorg Med Chem Lett, 2006).

Test: Binding affinity to LPS by fluorescence-based displacement assay

Row | Compound | ED50 [µM]
1 | CCCCCCCCCCCCS(=O)(=O)NCCCNCCCCNCCCN | 3
2 | CCCCCCCCCCCCCCCCS(=O)(=O)NCCCNCCCCNCCCN | 2
3 | NCCCNCCCCNCCCNS(=O)(=O)c1ccccc1 | 2960
4 | CC1(C)C2CCC1(CS(=O)(=O)NCCCNCCCCNCCCN)C(=O)C2 (centres undefined) | 1680
5 | NCCCNCCCCNCCCNS(=O)(=O)c1ccc(Br)cc1Br | 2110
6 | NCCCNCCCCNCCCNS(=O)(=O)c1cccc2ccccc12 | 34
7 | NCCCNCCCCNCCCNS(=O)(=O)c1ccc(Cl)cc1Cl | 56
8 | NCCCNCCCCNCCCNS(=O)(=O)c1cccc2cccnc12 | 4880
9 | CCCCCCCCCCS(=O)(=O)NCCCNCCCCNCCCN | 3
10 | NCCCNCCCCNCCCNS(=O)(=O)c1ccc(Cl)c(Cl)c1Cl | 9
11 | CCCCOc1ccc(CC(C)(C)C)cc1S(=O)(=O)NCCCNCCCCNCCCN | 4
12 | NCCCNCCCCNCCCNS(=O)(=O)c1ccc(Cl)c(C(F)(F)F)c1 | 21
13 | CCCCCCCCS(=O)(=O)NCCCNCCCCNCCCN | 5
14 | NCCCNCCCCNCCCNS(=O)(=O)c1cc(Cl)c(Cl)cc1Cl | 19
15 | NCCCNCCCCNCCCNS(=O)(=O)c1ccc(Cl)cc1 | 158
16 | CC(C)(C)c1ccc(S(=O)(=O)NCCCNCCCCNCCCN)cc1 | 25
17 | CCCCCCCCCCCCCCCCCCS(=O)(=O)NCCCNCCCCNCCCN | 6
18 | NCCCNCCCCNCCCNS(=O)(=O)c1ccc(C(F)(F)F)cc1 | 884
19 | CCCCS(=O)(=O)NCCCNCCCCNCCCN | > 10000
